Reference: US20260216294A1, “BETA 2-ADRENERGIC RECEPTOR AGONISTS FOR TREATMENT OR PREVENTION OF MUSCLE WASTING” (ATROGI AB, priority 2023, published 2026)

Experiments:
[1] = tested on: L6-myotubes; assay: Glucose uptake in differentiated L6-myotubes (Biological Example 2); assay type: cell-based; details: for Emax at 10 µM: read-out: Biological example 2 (GU)
In short: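 Differentiated L6 myotubes were serum-starved overnight in 0.5% fatty-acid-free BSA and then stimulated with compound or isoprenaline at 1×10^−5 M final. After 1 h 40 min cells were washed and re-dosed in glucose-free medium. Twenty minutes later, uptake of 50 nM ^3H-2-deoxyglucose over 10 min was measured by scintillation counting of NaOH lysates.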

[2] = tested on: L6-myotubes; assay: Measurement of intracellular cAMP levels in differentiated L6-myotubes (Biological Example 3); assay type: cell-based; details: for Emax at 10 µM: 0.25 h
In short: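 Serum-starved differentiated L6 myotubes stimulated 15 min with test compound at 1×10^−5 M final (isoprenaline as reference) in HBSS with 1% BSA, 5 mM HEPES, 1 mM IBMX, pH 7.4. Cells EtOH-extracted, lysed, and intracellular cAMP measured by AlphaScreen.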

[3] = glucose uptake, compound at 10 μM relative to isoproterenol at 10 μM
[4] = intracellular cAMP, compound at 10 μM relative to isoproterenol at 10 μM
[5] = glucose uptake in differentiated L6-myotubes, compound at 10 μM, activity relative to isoproterenol at 10 μM
[6] = intracellular cAMP in differentiated L6-myotubes, compound at 10 μM, activity relative to isoproterenol at 10 μM

SMILES | Emax at 10 µM [1, 3] [%] | Emax at 10 µM [2, 4] [%] | Emax at 10 µM [1, 5] [%] | Emax at 10 µM [2, 6] [%] | further results
CCCCNCC(O)c1ccc(F)c(N)c1F (stereo not shown) [Compound 43, 1-(3-amino-2,4-difluorophenyl)-2-(butylamino)-1-ethanol] | > 75 | < 25 | – | – | –
CC1(C)CCC[C@H]([C@@H](O)c2ccccc2F)N1 [Compound 176, (S)-[(R)-6,6-dimethyl-2-piperidyl](o-fluorophenyl)methanol] | > 75 | 25 to 50 | – | – | –
CCC(C)NCC(O)c1ccc(O)cc1 (stereo not shown) [Compound 5, 2-(sec-butylamino)-1-(p-hydroxyphenyl)-1-ethanol] | 50 to 75 | < 25 | – | – | –
O[C@H](c1cccc(F)c1)C12CCC(CCCc3ccccc3)(CC1)N2 [Compound 536, (R)-(m-fluorophenyl){4-(3-phenylpropyl)-7-azabicyclo[[2.2.1]]hept-1-yl}methanol] | – | – | > 75 | 25 to 50 | –
O[C@@H](CNCC[C@H]1CC[C@@H](OCc2ccccc2)CC1)c1cccc(F)c1 [Compound 287, (R)-1-(m-fluorophenyl)-2-{2-[(1s,4S)-4-(benzyloxy)cyclohexyl]ethylamino}-1-ethanol] | – | – | 50 to 75 | < 25 | –
CC(C)(C[C@H]1CC[C@@H](NC(=O)OC(C)(C)C)CC1)NC[C@H](O)c1cccc(C(F)(F)F)n1 [Compound 450, (1R,4s)-4-(2-{(S)-2-hydroxy-2-[6-(trifluoromethyl)-2-pyridyl]]ethylamino}-2-methylpropyl)cyclohexyl 2-methyl-2-propanecarbamate] | – | – | < 25 | < 25 | –
CC(C)(C)NCC(O)c1ccc(O)cc1 (stereo not shown) [Compound 4, 2-(tert-butylamino)-1-(p-hydroxyphenyl)-1-ethanol] | > 75 | 25 to 50 | – | – | –
CC12CC(C1)[C@@H]([C@H](O)c1cccc(F)c1)N2 [Compound 188, (R)-{(S)-1-methyl-2-azabicyclo[[2.1.1]]hex-3-yl}(m-fluorophenyl)methanol] | < 25 | < 25 | – | – | –
CS(=O)(=O)Nc1cccc(CC23CCC([C@@H](O)c4cccc(F)c4)(CC2)N3)c1 [Compound 515, (R)-(m-fluorophenyl)(4-{[m-(mesylamino)phenyl]methyl}-7-azabicyclo[[2.2.1]]hept-1-yl)methanol] | – | – | – | – | Biological example 2 (GU) [1, 5]: ++ (if it is between 75 and 50% it is denoted with ++); Biological example 3 (CAMP) [2, 6]: + (if it is between 50 and 25% it is denoted with +)
CC1(C)CC[C@H]([C@H](O)c2cccc(Cl)c2)N1 [Compound 154, (R)-[(R)-5,5-dimethyl-2-pyrrolidinyl](m-chlorophenyl)methanol] | > 75 | < 25 | – | – | –
O[C@H](c1cccc(F)c1)[C@H]1CC[C@@H](Cc2ccc(Cl)cc2)N1 [Compound 392, (R)-{(2R,5S)-5-[(p-chlorophenyl)methyl]-2-pyrrolidinyl}(m-fluorophenyl)methanol] | – | – | > 75 | < 25 | –
CC(C)(C[C@H]1CC[C@H](NS(C)(=O)=O)CC1)NC[C@H](O)c1cccc(C#N)n1 [Compound 426, 6-[(S)-2-{1,1-dimethyl-2-[(1r,4S)-4-(mesylamino)cyclohexyl]ethylamino}-1-hydroxyethyl]-2-pyridinecarbonitrile] | – | – | > 75 | < 25 | –
CS(=O)(=O)N[C@H]1CC[C@H](C[C@@H]2CC[C@H]([C@@H](O)c3cccc(F)c3)N2)CC1 [Compound 505, (S)-[(2R,5S)-5-{[(1r,4S)-4-(mesylamino)cyclohexyl]methyl}-2-pyrrolidinyl](m-fluorophenyl)methanol] | – | – | < 25 | < 25 | –
CC(=O)N(Cc1ccccc1)[C@H]1CC[C@@H](C[C@@H]2CC[C@H]([C@H](O)c3cccc(F)c3)N2)CC1 [Compound 480, N-[(1R,4s)-4-({(2S,5R)-5-[(R)-(m-fluorophenyl) hydroxymethyl]-2-pyrrolidinyl}methyl)cyclohexyl]-N-benzylacetamide] | – | – | < 25 | < 25 | –
CN(C)S(=O)(=O)[C@H]1CC[C@@H](CC(C)(C)NC[C@H](O)c2cncc(F)c2)CC1 [Compound 471] | – | – | > 75 | 50 to 75 | –
CC(C)(C[C@H]1CC[C@H](N)CC1)NC[C@@H](O)c1cccc(C#N)n1 [Compound 415] | – | – | 50 to 75 | < 25 | –
CCC[C@@H](C)NC[C@H](O)c1cccc(F)c1 [Compound 50, (R)-2-[(R)-1-methylbutylamino]-1-(m-fluorophenyl)-1-ethanol] | > 75 | < 25 | – | – | –
CO[C@H]1CC[C@H](C[C@H]2CC[C@H]([C@H](O)c3cccc(F)c3)N2)CC1 [Compound 335] | – | – | > 75 | < 25 | –
CC(=O)N[C@H]1CC[C@H](CC(C)(C)NC[C@H](O)c2cncc(F)c2)CC1 [Compound 357] | – | – | > 75 | < 25 | –

SMILES | Emax at 10 µM [1, 3] [%] | Emax at 10 µM [2, 4] [%] | Emax at 10 µM [1, 5] [%] | Emax at 10 µM [2, 6] [%] | further results
CC(=O)N[C@H]1CC[C@@H](CNC[C@H](O)c2cncc(F)c2)CC1 [Compound 310] | – | – | 25 to 50 | < 25 | –
O[C@@H](c1cccc(F)c1)C12CCC(CCc3ccc(Cl)cc3)(CC1)N2 [Compound 527, (S)-{4-[2-(p-chlorophenyl)ethyl]-7-azabicyclo[[2.2.1]]hept-1-yl}(m-fluorophenyl)methanol] | – | – | < 25 | < 25 | –
CC(C)(C)NC[C@H](O)c1ccc(F)c(N)c1F [Compound 149, (R)-1-(3-amino-2,4-difluorophenyl)-2-(tert-butylamino)-1-ethanol] | > 75 | 25 to 50 | – | – | –
CC1(C)C[C@@H]([C@H](O)c2cccc(F)c2)N1 [Compound 200, (R)-[(S)-4,4-dimethyl-2-azetidinyl](m-fluorophenyl)methanol] | – | – | < 25 | < 25 | –
CC(=O)N(C)[C@H]1CC[C@@H](CC(C)(C)NC[C@H](O)c2cncc(F)c2)CC1 [Compound 507] | – | – | – | < 25 | Biological example 2 (GU) [1, 5]: ++ (if it is between 75 and 50% it is denoted with ++)
CC12CC(C1)[C@H]([C@@H](O)c1ccccc1F)N2 [Compound 212] | – | – | > 75 | < 25 | –
CCC[C@@H]1CCC[C@@H]([C@H](O)c2cccc(O)c2)N1 [Compound 136] | > 75 | < 25 | – | – | –
CC(C)(NC[C@H](O)c1cncc(F)c1)[C@H]1CC[C@H](NS(C)(=O)=O)CC1 [Compound 345, (R)-1-(5-fluoro-3-pyridyl)-2-{1-methyl-1-[(1r,4R)-4-(mesylamino)cyclohexyl]ethylamino}-1-ethanol] | – | – | 25 to 50 | < 25 | –
CC(C)(C[C@H]1CC[C@@H](S(N)(=O)=O)CC1)NC[C@H](O)c1cccc(F)c1 [Compound 517, (1S,4s)-4-{2-[(R)-2-(m-fluorophenyl)-2-hydroxyethylamino]-2-methylpropyl} cyclohexanesulfonamide] | – | – | 25 to 50 | < 25 | –
O[C@H](c1cccc(F)c1)[C@H]1CCC2(CCCC2)N1 [Compound 168] | 50 to 75 | 25 to 50 | – | – | –
CO[C@H]1CC[C@@H](CNC[C@H](O)c2cccc(F)c2)CC1 [Compound 245, (R)-1-(m-fluorophenyl)-2-({[(1s,4S)-4-methoxycyclohexyl]methyl}amino)-1-ethanol] | – | – | 50 to 75 | < 25 | –
CC1(C)CC[C@H]([C@@H](O)c2cncc(O)c2)N1 [Compound 166, 5-{(S)-[(R)-5,5-dimethyl-2-pyrrolidinyl] hydroxymethyl}-3-pyridinol] | 25 to 50 | < 25 | – | – | –
CC1(C)CC[C@H]([C@@H](O)c2ccc(F)cc2)N1 [Compound 172] | < 25 | < 25 | – | – | –
COc1ccc(C[C@@H]2CC[C@H]([C@@H](O)c3cncc(F)c3)N2)cc1 [Compound 377, (S)-{(2R,5S)-5-[(p-methoxyphenyl)methyl]-2-pyrrolidinyl}(5-fluoro-3-pyridyl)methanol] | – | – | > 75 | < 25 | –
COc1ccc(C[C@H]2CC[C@H]([C@@H](O)c3cccc(F)c3)N2)cc1 [Compound 375, (S)-{(2R,5R)-5-[(p-methoxyphenyl)methyl]-2-pyrrolidinyl}(m-fluorophenyl)methanol] | – | – | > 75 | < 25 | –
CCCCNC[C@H](O)c1csc(N)n1 [Compound 71, (S)-1-(2-amino-1,3-thiazol-4-yl)-2-(butylamino)-1-ethanol] | 25 to 50 | < 25 | – | – | –
Oc1ccc(C(O)CNC23CC4CC(CC(C4)C2)C3)cc1 (stereo not shown) [Compound 11, p-[2-(1-adamantanylamino)-1-hydroxyethyl]phenol] | 25 to 50 | < 25 | – | – | –
CCCC(C)NCC(O)c1cc(Cl)c(N)c(C(F)(F)F)c1 (stereo not shown) [Compound 33, 1-[4-amino-3-chloro-5-(trifluoromethyl)phenyl] -2-(1-methylbutylamino)-1-ethanol] | 50 to 75 | > 75 | – | – | –
Oc1ccc(C(O)CNCCCC2CCCCC2)cc1 (stereo not shown) [Compound 21, 2-(3-cyclohexylpropylamino)-1-(p-hydroxyphenyl)-1-ethanol] | > 75 | < 25 | – | – | –
